In patent US6121326A, “Substituted alkyltetraamine derivatives” (Nippon Zoki Pharmaceutical Co., Ltd., priority 2000, dated 2000) one finds IC50 data, which are given here for 4 molecules.

This test deals with Substance P. The test can be described thus: Tachykinin antagonistic action: suppression of substance P-induced contraction of isolated guinea pig ileum. The arrangement: species or system guinea pig (Hartley strain, male). Conditions: isotonic contraction, substance P 10^-8 M, 10 minutes treatment with test drug. As for the experimental part: The compounds of the present invention were tested by an assay using ileum isolated from guinea pigs. Male guinea pigs of the Hartley strain (400 g to 500 g) were fainted and bled out. Then, ileum was isolated and hung in an organ bath filled with a nutritive solution. After an equilibration for 60 minutes, isotonic contraction was recorded. Substance P, a tachykinin agonist, was administered in a dose of 10^-8 M every 15 minutes. Administration of substance P was repeated for 3 to 4 times and it was confirmed that a contraction height for each run became constant. The constant contraction was used as a control. A treatment with the test drug was carried out for 10 minutes and then substance P was administered again and a concentration vs. action curve was prepared. A 50% suppression concentration (lC50) was determined from the concentration vs. action curve of the test drug. The compound of the present invention was used as a test drug and an example of the result of its antagonistic action to substance P is shown in Table 1: […]
On to `O=C(/C=C/c1ccc(O)cc1)NCCCN(CCCCN(CCCNC(=O)/C=C/c1ccc(O)cc1)C(=O)/C=C/c1ccc(O)cc1)C(=O)/C=C/c1ccc(O)cc1` [Compound 2, N1,N5,N10,N14-Tetrakis[3-(4-hydroxyphenyl)-2-propenoyl]tetraazatetradecane], for which the midpoint of inhibition, the IC50, lay at 11 nM.

As to `COc1cc(/C=C/C(=O)NCCCN(CCCCN(CCCNC(=O)/C=C/c2ccc(OC(C)=O)c(OC)c2)C(=O)/C=C/c2ccc(OC(C)=O)c(OC)c2)C(=O)/C=C/c2ccc(OC(C)=O)c(OC)c2)ccc1OC(C)=O` [Compound 3, N1,N5,N10,N14-Tetrakis[3-(4-acetoxy-3-methoxyphenyl)-2-propenoyl]tetraazatetradecane], the IC50 turned out to be 710 nM. The result for `COc1cc(/C=C/C(=O)NCCCN(CCCCN(CCCNC(=O)/C=C/c2ccc(O)c(OC)c2)C(=O)/C=C/c2ccc(O)c(OC)c2)C(=O)/C=C/c2ccc(O)c(OC)c2)ccc1O` [Compound 4, N1,N5,N10,N14-Tetrakis[3-(4-hydroxy-3-methoxyphenyl)-2-propenoyl]tetraazatetradecane] reads 580 nM; that for `CC(=O)Oc1ccc(/C=C/C(=O)NCCCN(CCCCN(CCCNC(=O)/C=C/c2ccc(OC(C)=O)cc2)C(=O)/C=C/c2ccc(OC(C)=O)cc2)C(=O)/C=C/c2ccc(OC(C)=O)cc2)cc1` [Compound 1, N1,N5,N10,N14-Tetrakis[3-(4-acetoxyphenyl)-2-propenoyl]tetraazatetradecane], 14 nM.

The IC50 is the concentration that inhibits the measured activity by half. Lower therefore signals greater potency.
